Here are results for five compounds from ChEMBL document CHEMBL1909046, “DrugMatrix in vitro pharmacology data”.

One experiment has as its target Receptor tyrosine-protein kinase erbB-2 (Homo sapiens, UniProt P04626). Put plainly: biochemical. To be noted: insect cells. Format: cell-based, Insect cells.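 Further: inhibition of HER2 kinase enzyme activity, measured with Poly(Glu:Tyr) as the phosphorylation substrate; in other assays of this panel Not Active means under 50% inhibition at 10 µM.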
Turning to `CC=CC(=O)N(CC)c1ccccc1C`, the IC50 entry is “Not Active”.
The same measure, in the same setting: the entry for `CC1(C)S[C@@H]2[C@H](NC(=O)[C@H](NC(=O)N3CCNC3=O)c3ccccc3)C(=O)N2[C@H]1C(=O)O` [AZLOCILLIN] is “Not Active”; for `CCOC(=O)OC(C)OC1=C(C(=O)Nc2ccccn2)N(C)S(=O)(=O)c2ccccc21` (configuration not stated) [AMPIROXICAM] it is “Not Active”.
Take GOLD SODIUM THIOMALATE: the IC50 entry was “Not Active” and the Ki result is on record as “Not Active”.
Consider `OCc1ccccc1` [BENZYL ALCOHOL], for which the IC50 entry is reported as “Not Active”.

System in the next experiment: not listed separately
Kind of experiment: DRUGMATRIX: Platelet-Derived Growth Factor (PDGF) radioligand binding (ligand: [125I] PDGF). Particulars: nih3t3; Not Active = under 50% inhibition at 10 µM. Format: cell-based.
In the case of `CC=CC(=O)N(CC)c1ccccc1C`, the IC50 entry is recorded as “Not Active” and the Ki result is “Not Active”.
`CC1(C)S[C@@H]2[C@H](NC(=O)[C@H](NC(=O)N3CCNC3=O)c3ccccc3)C(=O)N2[C@H]1C(=O)O` [AZLOCILLIN]: the IC50 entry is “Not Active” and the Ki result is recorded as “Not Active”.
`CCOC(=O)OC(C)OC1=C(C(=O)Nc2ccccn2)N(C)S(=O)(=O)c2ccccc21` (configuration not stated) [AMPIROXICAM]: the IC50 result was “Not Active” and the Ki entry was “Not Active”.
With GOLD SODIUM THIOMALATE, the IC50 entry is given as “Not Active” and the Ki result is listed as “Not Active”.
`OCc1ccccc1` [BENZYL ALCOHOL]: the IC50 entry is given as “Not Active” and the Ki result was “Not Active”.

For a further experiment, the target named is T1, C-X-C chemokine receptor type 1 (Homo sapiens, UniProt P25024). Further: in other assays of this panel Not Active means under 50% inhibition at 10 µM.
T1 sequence (P25024 whole entry): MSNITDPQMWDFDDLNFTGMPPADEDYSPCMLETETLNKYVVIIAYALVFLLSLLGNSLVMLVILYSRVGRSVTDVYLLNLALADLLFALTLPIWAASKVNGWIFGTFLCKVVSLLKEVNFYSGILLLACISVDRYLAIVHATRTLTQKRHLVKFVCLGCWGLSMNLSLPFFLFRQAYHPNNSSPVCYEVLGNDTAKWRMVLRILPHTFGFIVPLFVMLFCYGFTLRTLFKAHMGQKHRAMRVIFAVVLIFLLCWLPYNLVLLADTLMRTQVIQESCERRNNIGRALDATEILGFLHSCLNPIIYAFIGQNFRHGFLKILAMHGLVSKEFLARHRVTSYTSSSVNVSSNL
Assay: not given
Details: not given
As to `CC=CC(=O)N(CC)c1ccccc1C`, the IC50 result is “Not Active”.
On the same count and under the same terms, as for `CC1(C)S[C@@H]2[C@H](NC(=O)[C@H](NC(=O)N3CCNC3=O)c3ccccc3)C(=O)N2[C@H]1C(=O)O` [AZLOCILLIN], the entry is “Not Active”; as for `CCOC(=O)OC(C)OC1=C(C(=O)Nc2ccccn2)N(C)S(=O)(=O)c2ccccc21` (configuration not stated) [AMPIROXICAM], “Not Active”.
Consider GOLD SODIUM THIOMALATE, for which the IC50 entry was “Not Active” and the Ki entry is reported as “Not Active”.
Consider `OCc1ccccc1` [BENZYL ALCOHOL], for which the IC50 entry is “Not Active”.

Another experiment has as its target T2, Cholecystokinin receptor type A (Homo sapiens, UniProt P32238). Further: in other assays of this panel Not Active means under 50% inhibition at 10 µM.
T2 sequence (P32238 whole entry): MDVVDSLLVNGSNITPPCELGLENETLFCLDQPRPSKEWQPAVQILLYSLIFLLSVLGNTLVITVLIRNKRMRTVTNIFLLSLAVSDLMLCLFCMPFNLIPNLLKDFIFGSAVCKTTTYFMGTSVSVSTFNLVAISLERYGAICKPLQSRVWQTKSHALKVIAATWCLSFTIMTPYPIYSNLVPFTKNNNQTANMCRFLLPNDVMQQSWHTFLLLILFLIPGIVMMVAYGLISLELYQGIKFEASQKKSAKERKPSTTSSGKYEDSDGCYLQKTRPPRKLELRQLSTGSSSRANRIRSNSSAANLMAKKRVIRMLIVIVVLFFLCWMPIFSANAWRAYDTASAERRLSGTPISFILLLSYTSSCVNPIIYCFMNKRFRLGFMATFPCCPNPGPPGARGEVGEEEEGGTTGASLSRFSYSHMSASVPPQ
Assay: not given
It is filed as cell membranes, Membrane. To be noted: 1321-n1.
As to `CC=CC(=O)N(CC)c1ccccc1C`, the IC50 result is listed as “Not Active”.
On the same count and under the same terms, as for `CC1(C)S[C@@H]2[C@H](NC(=O)[C@H](NC(=O)N3CCNC3=O)c3ccccc3)C(=O)N2[C@H]1C(=O)O` [AZLOCILLIN], the entry is “Not Active”.
Take `CCOC(=O)OC(C)OC1=C(C(=O)Nc2ccccn2)N(C)S(=O)(=O)c2ccccc21` (configuration not stated) [AMPIROXICAM]: the IC50 result is “Not Active”.
For GOLD SODIUM THIOMALATE, the IC50 result was “Not Active” and the Ki entry is listed as “Not Active”.
`OCc1ccccc1` [BENZYL ALCOHOL]: the IC50 entry is reported as “Not Active”.

In the next experiment the target is Tyrosine-protein kinase Lck (Homo sapiens, UniProt P06239). Put plainly: DRUGMATRIX: Protein Tyrosine Kinase, LCK enzyme inhibition (substrate: Poly(Glu:Tyr)). Format: cell-based, Insect cells. Particulars: insect cells; Not Active = under 50% inhibition at 10 µM.
Tyrosine-protein kinase Lck, sequence (P06239 whole entry): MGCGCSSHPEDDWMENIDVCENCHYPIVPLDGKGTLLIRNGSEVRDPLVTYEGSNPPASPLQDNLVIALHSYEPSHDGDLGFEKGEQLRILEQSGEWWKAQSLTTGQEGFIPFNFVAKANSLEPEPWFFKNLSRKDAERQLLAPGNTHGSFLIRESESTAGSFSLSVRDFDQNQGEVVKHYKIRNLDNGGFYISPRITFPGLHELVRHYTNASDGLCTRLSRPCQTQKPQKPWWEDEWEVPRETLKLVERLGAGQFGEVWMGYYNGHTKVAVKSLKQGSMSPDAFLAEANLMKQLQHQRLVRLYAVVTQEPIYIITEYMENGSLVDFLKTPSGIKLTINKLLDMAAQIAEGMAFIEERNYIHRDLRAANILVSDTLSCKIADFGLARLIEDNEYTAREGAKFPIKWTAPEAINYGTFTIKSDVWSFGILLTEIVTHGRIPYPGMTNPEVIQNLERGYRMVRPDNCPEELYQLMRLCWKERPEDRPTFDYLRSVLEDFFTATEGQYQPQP
On to `CC=CC(=O)N(CC)c1ccccc1C`, for which the IC50 result is listed as “Not Active”.
Still for that read-out and setting: as for `CC1(C)S[C@@H]2[C@H](NC(=O)[C@H](NC(=O)N3CCNC3=O)c3ccccc3)C(=O)N2[C@H]1C(=O)O` [AZLOCILLIN], the entry is “Not Active”; as for `CCOC(=O)OC(C)OC1=C(C(=O)Nc2ccccn2)N(C)S(=O)(=O)c2ccccc21` (configuration not stated) [AMPIROXICAM], “Not Active”.
As to GOLD SODIUM THIOMALATE, the IC50 entry is reported as “Not Active” and the Ki entry is reported as “Not Active”.
In the case of `OCc1ccccc1` [BENZYL ALCOHOL], the IC50 result was “Not Active”.

The next experiment concerns the target T3, Estrogen receptor (Homo sapiens, UniProt P03372). Further: in other assays of this panel Not Active means under 50% inhibition at 10 µM.
T3 sequence (P03372 whole entry): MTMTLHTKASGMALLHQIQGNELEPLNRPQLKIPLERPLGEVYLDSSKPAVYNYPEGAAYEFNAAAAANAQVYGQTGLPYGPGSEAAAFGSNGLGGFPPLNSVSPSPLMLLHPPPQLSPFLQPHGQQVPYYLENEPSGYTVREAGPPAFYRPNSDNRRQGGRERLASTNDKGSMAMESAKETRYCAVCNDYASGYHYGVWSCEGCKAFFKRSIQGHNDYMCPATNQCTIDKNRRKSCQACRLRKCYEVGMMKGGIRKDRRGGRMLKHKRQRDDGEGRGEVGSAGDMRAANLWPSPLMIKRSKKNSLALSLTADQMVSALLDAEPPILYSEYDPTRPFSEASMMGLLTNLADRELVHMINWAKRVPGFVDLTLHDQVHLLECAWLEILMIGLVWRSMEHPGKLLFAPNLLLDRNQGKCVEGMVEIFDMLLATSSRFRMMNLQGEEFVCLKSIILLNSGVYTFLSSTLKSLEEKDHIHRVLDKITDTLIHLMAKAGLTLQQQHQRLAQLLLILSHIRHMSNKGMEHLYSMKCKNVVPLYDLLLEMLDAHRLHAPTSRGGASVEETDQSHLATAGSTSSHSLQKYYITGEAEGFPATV
Assay: not given
Particulars: sf9.
`CC=CC(=O)N(CC)c1ccccc1C`: the IC50 entry was “Not Active”.
As for `CC1(C)S[C@@H]2[C@H](NC(=O)[C@H](NC(=O)N3CCNC3=O)c3ccccc3)C(=O)N2[C@H]1C(=O)O` [AZLOCILLIN], the IC50 entry was “Not Active”.
As to `CCOC(=O)OC(C)OC1=C(C(=O)Nc2ccccn2)N(C)S(=O)(=O)c2ccccc21` (configuration not stated) [AMPIROXICAM], the IC50 entry is “Not Active”.
As to GOLD SODIUM THIOMALATE, the IC50 entry is recorded as “Not Active” and the Ki entry is “Not Active”.
In the case of `OCc1ccccc1` [BENZYL ALCOHOL], the IC50 result was “Not Active”.

A further experiment has as its target T4, Vasoactive intestinal polypeptide receptor 1 (Homo sapiens, UniProt P32241). Further: in other assays of this panel Not Active means under 50% inhibition at 10 µM.
T4 sequence (P32241 whole entry): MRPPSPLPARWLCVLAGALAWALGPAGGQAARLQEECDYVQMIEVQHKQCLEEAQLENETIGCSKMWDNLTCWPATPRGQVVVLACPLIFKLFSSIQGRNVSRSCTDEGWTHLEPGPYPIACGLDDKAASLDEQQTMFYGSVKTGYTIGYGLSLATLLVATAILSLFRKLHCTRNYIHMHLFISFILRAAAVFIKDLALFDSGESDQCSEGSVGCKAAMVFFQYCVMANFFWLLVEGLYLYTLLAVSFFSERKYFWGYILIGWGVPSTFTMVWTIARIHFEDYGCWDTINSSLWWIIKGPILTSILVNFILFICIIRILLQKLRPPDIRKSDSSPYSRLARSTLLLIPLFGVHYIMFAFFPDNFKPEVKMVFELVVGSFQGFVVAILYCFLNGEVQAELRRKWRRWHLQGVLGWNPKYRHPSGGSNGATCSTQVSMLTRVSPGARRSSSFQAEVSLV
Assay: not given
It is filed as cell membranes, Membrane. Particulars: ht-29.
On to `CC=CC(=O)N(CC)c1ccccc1C`, for which the IC50 entry is listed as “Not Active”.
Turning to `CC1(C)S[C@@H]2[C@H](NC(=O)[C@H](NC(=O)N3CCNC3=O)c3ccccc3)C(=O)N2[C@H]1C(=O)O` [AZLOCILLIN], the IC50 entry was “Not Active”.
The same measure, in the same setting: the entry for `CCOC(=O)OC(C)OC1=C(C(=O)Nc2ccccn2)N(C)S(=O)(=O)c2ccccc21` (configuration not stated) [AMPIROXICAM] is “Not Active”.
As to GOLD SODIUM THIOMALATE, the IC50 result was “Not Active” and the Ki result is given as “Not Active”.
For the compound `OCc1ccccc1` [BENZYL ALCOHOL], the IC50 entry is “Not Active”.

For the next experiment, the target named is T5, Glucocorticoid receptor (Homo sapiens, UniProt P04150). Further: in other assays of this panel Not Active means under 50% inhibition at 10 µM.
T5 sequence (P04150 whole entry): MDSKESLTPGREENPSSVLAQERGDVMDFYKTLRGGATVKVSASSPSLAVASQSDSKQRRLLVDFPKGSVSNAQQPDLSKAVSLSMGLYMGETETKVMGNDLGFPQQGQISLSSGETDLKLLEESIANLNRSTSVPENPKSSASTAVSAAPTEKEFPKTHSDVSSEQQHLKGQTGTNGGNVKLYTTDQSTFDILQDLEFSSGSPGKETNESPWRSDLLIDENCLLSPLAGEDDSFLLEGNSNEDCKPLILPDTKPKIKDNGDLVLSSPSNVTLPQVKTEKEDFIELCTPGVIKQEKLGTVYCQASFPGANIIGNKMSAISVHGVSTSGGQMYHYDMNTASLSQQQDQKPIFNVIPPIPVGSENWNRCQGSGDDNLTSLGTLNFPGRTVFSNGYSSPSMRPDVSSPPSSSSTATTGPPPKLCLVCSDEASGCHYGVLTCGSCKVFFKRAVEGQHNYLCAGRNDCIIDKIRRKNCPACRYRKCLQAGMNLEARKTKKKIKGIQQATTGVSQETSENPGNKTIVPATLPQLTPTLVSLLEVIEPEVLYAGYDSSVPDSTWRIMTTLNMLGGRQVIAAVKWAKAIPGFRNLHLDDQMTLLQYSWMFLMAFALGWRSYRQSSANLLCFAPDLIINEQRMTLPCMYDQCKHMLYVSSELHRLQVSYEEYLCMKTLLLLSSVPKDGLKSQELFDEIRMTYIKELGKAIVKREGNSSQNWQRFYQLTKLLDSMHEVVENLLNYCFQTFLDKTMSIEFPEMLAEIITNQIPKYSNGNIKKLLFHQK
Assay: not given
Particulars: hela s3.
Regarding `CC=CC(=O)N(CC)c1ccccc1C`, the IC50 result is “Not Active”.
Same read-out and setting: as for `CC1(C)S[C@@H]2[C@H](NC(=O)[C@H](NC(=O)N3CCNC3=O)c3ccccc3)C(=O)N2[C@H]1C(=O)O` [AZLOCILLIN], the entry is “Not Active”; as for `CCOC(=O)OC(C)OC1=C(C(=O)Nc2ccccn2)N(C)S(=O)(=O)c2ccccc21` (configuration not stated) [AMPIROXICAM], “Not Active”.
As to GOLD SODIUM THIOMALATE, the IC50 result is “Not Active” and the Ki result is on record as “Not Active”.
As to `OCc1ccccc1` [BENZYL ALCOHOL], the IC50 result is on record as “Not Active”.
